Data: PubChem BioAssay AID1189 (EPA DSSTox, 2008)
Calls of active or inactive are those of the source.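 How the source made its calls: active means a tumor-causing dose value with its tumor site reported for any sex and species group of a rodent or other animal cancer study; inconclusive means only studies judged inadequate by the national testing program; inactive means tested in at least one study, none positive.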 Numbered stars: 1 amine (or outer) side, 2 acyl side, 3 side chain; on linkers, the order of the positions; unused ones are H or OH. Bridge positions count the residues as written; N and C are the ends. Square brackets hold non-standard residues; d marks the D form. Peptide text beside a SMILES is read from it. I, II: the chains in the order shown. Actinocin(1to9) = Cc1c2oc3c(C)ccc(C(=O)[*:2])c3nc-2c(C(=O)[*:1])c(N)c1=O; d(aIle) = CC[C@H](C)[C@@H](N)C(=O)O; NMeV = CN[C@H](C(=O)O)C(C)C; Sar = CNCC(=O)O

experiment: DSSTox (CPDBAS) Carcinogenic Potency Database Summary SingleCellCall Results; details: animal chronic carcinogenicity bioassays, CPDB summary call
In short: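 Literature-derived summary: each substance receives an overall carcinogenic/non-carcinogenic category drawn from long-term bioassays in rats, mice, hamsters, dogs or primates, using the most positive sex-species experiment and minimal evidence criteria.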

Row | Compound | outcome
1 | Cc1ccc(S(=O)(=O)Oc2ccc(N=Nc3ccc(-c4ccc(N=Nc5c(O)ccc6cc(S(=O)(=O)O)cc(S(=O)(=O)O)c56)c(C)c4)cc3C)cc2)cc1 | active
2 | Cc1ccc(N)c(C)c1 | active
3 | CC(C)O | inactive
4 | Cc1cc(C)c(N=Nc2c(O)c(S(=O)(=O)O)cc3cc(S(=O)(=O)O)ccc23)cc1C | active; inactive
5 | C=C(F)F | inactive
6 | NC(=O)c1cnccn1 | inactive
7 | Nc1ccc(N)c2c1C(=O)c1c(N)ccc(N)c1C2=O | active
8 | CCN(CC)CCOc1ccc(/C(=C(\Cl)c2ccccc2)c2ccccc2)cc1 | inactive; active
9 | CC(=O)Nc1ccc(OCC(O)CNC(C)C)cc1 (stereo not drawn) | inactive
10 | CCCCCCCCCCC(C)c1ccc(S(=O)(=O)O)cc1 (stereo not drawn) | inactive
11 | O=C1C=C(N2CC2)C(=O)C(N2CC2)=C1N1CC1 | active
12 | O=CCBr | inactive; active
13 | C=CCN=C=S | active; inactive
14 | CC(C)CCC[C@@H](C)[C@H]1CC[C@H]2[C@@H]3CC=C4C[C@@H](OC(=O)Cc5ccc(N(CCCl)CCCl)cc5)CC[C@]4(C)[C@H]3CC[C@]12C | active
15 | O=C(O)c1nn(Cc2ccc(Cl)cc2Cl)c2ccccc12 | inactive
16 | CN1C(C(=O)Nc2ccccn2)=C(O)c2sc(Cl)cc2S1(=O)=O | inactive
17 | CC1=C2C(=CO[C@@H](C)[C@@H]2C)C(=O)C(C(=O)O)=C1O | active
18 | [O]=[Cr](=[O])([OH])[O][Cr](=[O])(=[O])[OH] | active
19 | COC(=O)C(c1ccccc1)C1CCCCN1N=O (stereo not drawn) | inactive
20 | O=c1[nH]c(=O)n(C2CCCO2)cc1F (stereo not drawn) | inactive
21 | O=C(O)COc1cc(Cl)c(Cl)cc1Cl | inactive
22 | CC(C)OC(=O)COc1ccc(Cl)cc1Cl | inactive
23 | C=CC=O | inactive
24 | ClC(Cl)=C(Cl)C(Cl)=C(Cl)Cl | active

Row | Compound | outcome
25 | O=C1O[C@@H](CN2CCOCC2)CN1/N=C/c1ccc([N+](=O)[O-])o1 | active
26 | OC[C@H]1O[C@@H]2O[C@H]3[C@H](O)[C@@H](O)[C@@H](O[C@H]4[C@H](O)[C@@H](O)[C@@H](O[C@H]5[C@H](O)[C@@H](O)[C@@H](O[C@H]6[C@H](O)[C@@H](O)[C@@H](O[C@H]7[C@H](O)[C@@H](O)[C@@H](O[C@H]8[C@H](O)[C@@H](O)[C@@H](O[C@H]1[C@H](O)[C@H]2O)O[C@@H]8CO)O[C@@H]7CO)O[C@@H]6CO)O[C@@H]5CO)O[C@@H]4CO)O[C@@H]3CO | inactive
27 | CCC(C(=O)NC(N)=O)c1ccccc1 (stereo not drawn) | inactive
28 | CCCCN(CCCC)C(=S)[S-].CCCCN(CCCC)C(=S)[S-].[Zn+2] | inactive
29 | Clc1ccc2c(c1)Oc1ccc(Cl)cc1O2 | inactive
30 | CC(C)C/C=N/N(C)C=O | active
31 | O=C(C1CCCCC1)N1CC(=O)N2CCc3ccccc3C2C1 (stereo not drawn) | inactive
32 | COc1cc2c(c3c1c(=O)c1ccccc1n3C)C=CC(C)(C)O2 | active; inactive
33 | C=CC1=C(C)C2=CC3=NC(=C(CC(=O)[O-])C4=NC(=C(C)C4=C([O-])[O-])C=c4[n-]c(c(C)c4CC)=CC1=N2)[C@@H](CCC(=O)[O-])[C@@H]3C.[Cu+2].[Na+].[Na+].[Na+] | inactive
34 | FCC(F)(F)F | active
35 | CN(C)CCC(c1ccc(Cl)cc1)c1ccccn1 (stereo not drawn) | inactive
36 | O=C1CCCCC1 | inactive
37 | C[N+](C)(C)CCO | inactive
38 | O=NN1CCCC1c1cccnc1 (stereo not drawn) | active
39 | NNC(=O)c1cccnc1 | active
40 | O=NN1CCCCO1 | active
41 | O.O.O.O.O.O.O.O=S(=O)([O-])[O-].[Co+2] | active
42 | OC(c1ccc(Cl)cc1)(c1ccc(Cl)cc1)C(Cl)(Cl)Cl | active
43 | Cc1ccc2c(-c3cccc(O)c3)nc(=O)n(C(C)C)c2c1 | inactive
44 | O=[Se]=O | inactive
45 | Nc1ccc(Oc2ccc(Cl)cc2)cc1 | active
46 | OCC(CO)(CBr)CBr | active
47 | CN(C)c1ccc(N=NS(=O)(=O)O)cc1 | inactive
48 | ClC1=C(Cl)[C@@]2(Cl)[C@@H]3[C@@H](Cl)[C@H](Cl)C[C@@H]3C1(Cl)C2(Cl)Cl | active

Row | Compound | outcome
49 | O=C(O)C1[O][Sb]2[O]C(=O)C([O]2)C(C(=O)O)[O][Sb]2[O]C(=O)C1[O]2 (stereo not drawn) | inactive
50 | CCN(CC)C(=S)S[Te](SC(=S)N(CC)CC)(SC(=S)N(CC)CC)SC(=S)N(CC)CC | inactive
51 | O=S(=O)(O)c1cc(S(=O)(=O)O)c2c(N=Nc3ccc(S(=O)(=O)O)c4ccccc34)c(O)ccc2c1 | active; inactive
52 | C=CCO | inactive; active
53 | CCCCCc1cc(O)c2c(c1)OC(C)(C)[C@@H]1CCC(C)=C[C@@H]21 | inactive; active
54 | CC(=O)Nc1ccc2c(c1)C(=O)c1ccccc1-2 | active
55 | ClC=C(Cl)Cl | active; inactive
56 | C#C[C@]1(OC(C)=O)CC[C@H]2[C@@H]3CCC4=CC(=O)CC[C@@H]4[C@H]3CC[C@@]21C | active
57 | COc1cc(OC)c2c3c(c(=O)oc2c1)CCC3 | inactive
58 | CCC(Cl)CCC(Cl)C(Cl)CC(Cl)C(Cl)C(Cl)CCl (stereo not drawn) | active
59 | [Cl-].[Cl-].[Cl-].[Fe+3] | inactive
60 | CN(C)CCN(C)N=O | active; inactive
61 | Clc1cc2c(cc1Cl)Oc1cc(Cl)c(Cl)cc1O2 | active; inactive
62 | Cn1c(N)nc2c3cccnc3ccc21 | active; inactive
63 | CC1CN(N=O)CC(C)N1C(=O)c1ccccc1 (stereo not drawn) | active
64 | N/C(=N\O)c1ccc([N+](=O)[O-])o1 | inactive
65 | CCCCC(CC)COP(=O)(OCC(CC)CCCC)OCC(CC)CCCC (stereo not drawn) | active
66 | ClC(Cl)(Cl)Cl | active; inactive
67 | CN(CCc1ccccc1)N=O | active
68 | O=[N+]([O-])c1ccc(-c2cnc3ccccn23)o1 | active
69 | CN(N=O)C(=O)Nc1nc2ccccc2s1 | active
70 | CC(=O)N(C(C)=O)c1cccc2c1Cc1ccccc1-2 | active
71 | Cc1ccc(N=C=O)cc1N=C=O | active; inactive
72 | O=S(=O)(c1ccc(Cl)cc1)c1ccc(Cl)cc1 | inactive; active

Row | Compound | outcome
73 | C1CCOC1 | active; inactive
74 | C=CF | active; inactive
75 | O=C1NC(=O)C(c2ccccc2)(c2ccccc2)N1 | active
76 | CN(C)C(=S)[S-].CN(C)C(=S)[S-].[Cu+2] | inactive
77 | O=NN1CCCCC1 | active; inactive
78 | S=c1nc[nH]c2nc[nH]c12 | inactive; active
79 | CCCCNNCCCC | active; inactive
80 | C=CC(OC(C)=O)c1ccc2c(c1)OCO2 (stereo not drawn) | active
81 | C=CCN(CC(O)CO)N=O (stereo not drawn) | active
82 | O=C1c2cccc(O)c2C(=O)c2c(O)cccc21 | active
83 | c1ccc2ccccc2c1 | active
84 | C=C/C1=C/[C@H](C)[C@](C)(OC(C)=O)C(=O)OCC2=CC[N+]3(C)CC[C@@H](OC1=O)C23[O-] (stereo partly drawn) | active; inactive
85 | C/C=C/Cl | active
86 | BrCCBr | active; inactive
87 | COc1ccc([N+](=O)[O-])cc1N=Nc1c(O)c(C(=O)Nc2cccc([N+](=O)[O-])c2)cc2ccccc12 | inactive; active
88 | Cc1cc(Cc2cc(C)cc(C(C)(C)C)c2O)c(O)c(C(C)(C)C)c1 | inactive; active
89 | COc1cc(N)ccc1N=Nc1ccccc1 | inactive; active
90 | CC1(C)[C@H](C(=O)O[C@H](C#N)c2cccc(Oc3ccccc3)c2)[C@@H]1C=C(Br)Br | inactive
91 | CC(O)CN(CC(O)CO)N=O (stereo not drawn) | active
92 | NNC=O | active
93 | CN(C)c1ccc(C(=N)c2ccc(N(C)C)cc2)cc1 | active
94 | Cc1ncc([N+](=O)[O-])n1C | active
95 | [N]=O | inactive
96 | C=CC(N)=O | active; inactive

Row | Compound | outcome
97 | Cc1csc(NNC=O)n1 | active
98 | Nc1ccc2ccccc2c1S(=O)(=O)O | inactive
99 | N[C@@H](CS)C(=O)O | inactive
100 | CCCCC1(COC(=O)CCC(=O)O)C(=O)N(c2ccccc2)N(c2ccccc2)C1=O | inactive
101 | NNCCc1ccccc1 | active
102 | CC[C@H](C)[C@H]1NC(=O)[C@@H](NC(=O)c2c3nc4c(C(=O)N[C@@H]5C(=O)N[C@H](C(C)C)C(=O)N6CCC[C@H]6C(=O)N(C)CC(=O)N(C)[C@@H](C(C)C)C(=O)O[C@@H]5C)ccc(C)c4oc-3c(C)c(=O)c2N)[C@@H](C)OC(=O)[C@H](C(C)C)N(C)C(=O)CN(C)C(=O)[C@@H]2CCCN2C1=O (I: T[d(aIle)]P[Sar][NMeV] / II: T[dV]P[Sar][NMeV]; ester I:1-I:C, II:1-II:C; linker I:N-II:N via Actinocin(1to9)) | inactive
103 | COC(=O)C1=C(C)NC(C)=C(C(=O)OCCN2CCN(C(c3ccccc3)c3ccccc3)CC2)C1c1cccc([N+](=O)[O-])c1 (stereo not drawn) | inactive
104 | S=C=Nc1ccccc1 | inactive
105 | CCOc1nc2cccc(C(=O)OC(C)OC(=O)OC3CCCCC3)c2n1Cc1ccc(-c2ccccc2-c2nn[nH]n2)cc1 (stereo not drawn) | inactive
106 | COc1cccc(O)c1O | active
107 | Cc1cc(O)c2c(c1)C(=O)c1cc(O)cc(O)c1C2=O | inactive; active
108 | O=NN1CCOC1 | active; inactive
109 | CC(COc1ccc(C(C)(C)C)cc1)OS(=O)OCCCl (stereo not drawn) | active
110 | NCC(=O)O | active
111 | Cl/C=C/CCl | active
112 | CC1CN(/N=C/c2ccc([N+](=O)[O-])o2)C(=O)N1 (stereo not drawn) | active
113 | CC(C)=CCC/C(C)=C/C=O | inactive
114 | O=C(O)c1ccc([N+](=O)[O-])cc1 | active
115 | [Na+] | inactive
116 | CCc1cc(C(N)=S)ccn1 | active; inactive
117 | COc1ccc(O)c(C(C)(C)C)c1 | active; inactive
118 | ClC(Cl)(Cl)c1ccccc1 | active; inactive
